Results taken from patent US12161726B2, “Biomimetic vesicles and uses thereof” (Ohio State Innovation Foundation, priority 2018, dated 2024).

Assays:
[1] = Drug loading level (HPLC / UV-Vis); format: physicochemical; conditions: drug loaded into nanoclusters
Description: (d). Characterizations. 1H NMR spectra of all polymer products were recorded on a Varian Mercury Plus 300 spectrometer in DMSO-d6 or CDCl3 at 25° C. Molecular weights (Mn and Mw) and polydispersity indices (PDI) of the polymers were determined by a gel permeation chrornatographer (GPC) equipped with a refractive index detector, a viscometer detector, and a light scattering detector (Viscotek, USA), DMF with 0.01 M of LiBr was used as the mobile phase with. Fourier transform infrared (FT-IR) spectra were recorded on a Bruker Tensor 27 FT-IR spectrometer. The sizes and morphologies of the NPs were studied by dynamic light scattering (DLS, ZetaSizer Nano ZS90, Malvern Instruments, USA) and transmission electron microscopy (TEM, FEI Tecnai G2 F30 TWIN 300 KV, E.A, Fischione Instruments, Inc. USA). The zeta potentials were measured by ZetaSizer Nano ZS90 (Malvern Instruments, USA). The rapamycin loading level was measured by high-performance liquid chromatography (HPLC) using ultraviolet (UV) detection at 278 nm. The JQ1 loading level was measured by UV-Vis spectrometer at 323 nm.

[2] = In vitro drug release in PBS (dialysis bag); format: physicochemical; conditions: from drug-loaded biomimetic nanoclusters, PBS pH 7.4, 37° C
Description: The in vitro drug release profiles from both rapamycin-loaded and JQ1-loaded biomimetic nanoclusters were studied in PBS (pH=7.4) (19). Briefly, drug-loaded biomimetic nanoclusters in the PBS (1 mg/mL, 5 mL) were enclosed in a cellulose membrane dialysis bag (molecular weight cut-off, 8 kDa). The dialysis bags were immersed in 100 mL of PBS, which was then kept in a horizontal laboratory shaker (100 rpm) at 37° C. At predetermined time intervals, 5 mL samples were collected and replaced with the same volume of PBS. The amounts of rapamycin and JQ1 in the collected samples were measured by HPLC and UV-Vis spectrometer, respectively, as indicated above.

[3] = test system: neointimal hyperplasia (IH) in balloon-injured carotid arteries; experiment: Morphometric analysis of neointima after carotid artery balloon angioplasty; format: in vivo, rat; conditions: two i.v. injections (day 0 and 4), 14 days after angioplasty
Description: Materials and Methods: Rat carotid artery balloon angioplasty. Carotid artery balloon angioplasty was performed in male Sprague-Dawley rats (Charles River; about 400 g) as previously described (5, 20). Briefly, rats were anesthetized with isoflurane (5% for inducing and 2.5% for maintaining anesthesia). A longitudinal incision was made in the neck and carotid arteries were exposed. A 2-F balloon catheter (Edwards Lifesciences, Irvine, CA) was inserted through an arteriotomy on the left external carotid artery. To produce arterial injury, the balloon was inflated at a pressure of 2 atm and withdrawn to the carotid bifurcation and this action was repeated three times. The external carotid artery was then permanently ligated, and blood flow was resumed. Drug-loaded biomimetic nanoclusters or compound solutions were injected via rat tail vein. […]
Materials and Methods: Morphometric analysis of neointima. […] Planimetric parameters as follows were measured on the sections and calculated using Image J: area inside external elastic lamina (EEL area), area inside internal elastic lamina (IEL area), lumen area, intima area (=IEL area−lumen area), and media area (=EEL area−IEL area). Intimal hyperplasia was quantified as a ratio of intima area versus media area. […] The means from all the animals in each treatment group were then averaged, and the standard error of the mean (SEM) was calculated. […]

human umbilical vein ECs = conditions: cited from earlier work
[4] = test system: pro-inflammatory activation of ECs and monocyte recruiting; conditions: hypercholesterolemic murine model of atherosclerosis; cited from earlier work
restenosis = conditions: rat model, earlier study (ref 5); cited from earlier work

Structure (SMILES): Cc1sc2c(c1C)C(c1ccc(Cl)cc1)=N[C@@H](CC(=O)OC(C)(C)C)c1nnc(C)n1-2 [JQ1]
- Drug loading level [1]: 21.5%
- In vitro drug release profile [2]: released in a sustainable manner without a burst release
- Effect on IH (I/M ratio) [3]: failed to mitigate IH
- TNFα-induced pathogenic EC activation (E-selectin, VCAM1, NF-κB translocation) (human umbilical vein ECs): inhibits TNFα-induced pathogenic EC activation
- Pro-inflammatory activation of ECs and monocyte recruiting in vivo [4]: inhibitory effects
- Inhibition of restenosis (restenosis): effective inhibitor of restenosis
